Results published in patent publication US12435092B2, “Substituted imidazo[1,2-A]quinazolines as inhibitors of PARG” (858 Therapeutics, Inc., priority 2022, dated 2025).

Target: T1, cellular PARG (Homo sapiens, UniProt Q86W56)
T1 construct: endogenous in cells; host or cells: HeLa
Assay: Nuclear PAR accumulation assay (immunofluorescence high-content imaging)
Type: cell-based
Conditions: HeLa cells, 1 hour compound treatment then MMS 50 μg/mL for an additional hour
Outline: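 HeLa cells pretreated 1 h at 37 °C with compound, then 1 h with 50 μg/mL MMS (final), methanol-fixed and immunostained for PAR with DAPI nuclear counterstain. Nuclear PAR intensity and percent PAR-positive cells quantified by high-content imaging (≥1,000 cells/well). IC50 by four-parameter logistic fit, normalized to 0.1% DMSO and reference-compound controls.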

T1 sequence (Q86W56 whole entry): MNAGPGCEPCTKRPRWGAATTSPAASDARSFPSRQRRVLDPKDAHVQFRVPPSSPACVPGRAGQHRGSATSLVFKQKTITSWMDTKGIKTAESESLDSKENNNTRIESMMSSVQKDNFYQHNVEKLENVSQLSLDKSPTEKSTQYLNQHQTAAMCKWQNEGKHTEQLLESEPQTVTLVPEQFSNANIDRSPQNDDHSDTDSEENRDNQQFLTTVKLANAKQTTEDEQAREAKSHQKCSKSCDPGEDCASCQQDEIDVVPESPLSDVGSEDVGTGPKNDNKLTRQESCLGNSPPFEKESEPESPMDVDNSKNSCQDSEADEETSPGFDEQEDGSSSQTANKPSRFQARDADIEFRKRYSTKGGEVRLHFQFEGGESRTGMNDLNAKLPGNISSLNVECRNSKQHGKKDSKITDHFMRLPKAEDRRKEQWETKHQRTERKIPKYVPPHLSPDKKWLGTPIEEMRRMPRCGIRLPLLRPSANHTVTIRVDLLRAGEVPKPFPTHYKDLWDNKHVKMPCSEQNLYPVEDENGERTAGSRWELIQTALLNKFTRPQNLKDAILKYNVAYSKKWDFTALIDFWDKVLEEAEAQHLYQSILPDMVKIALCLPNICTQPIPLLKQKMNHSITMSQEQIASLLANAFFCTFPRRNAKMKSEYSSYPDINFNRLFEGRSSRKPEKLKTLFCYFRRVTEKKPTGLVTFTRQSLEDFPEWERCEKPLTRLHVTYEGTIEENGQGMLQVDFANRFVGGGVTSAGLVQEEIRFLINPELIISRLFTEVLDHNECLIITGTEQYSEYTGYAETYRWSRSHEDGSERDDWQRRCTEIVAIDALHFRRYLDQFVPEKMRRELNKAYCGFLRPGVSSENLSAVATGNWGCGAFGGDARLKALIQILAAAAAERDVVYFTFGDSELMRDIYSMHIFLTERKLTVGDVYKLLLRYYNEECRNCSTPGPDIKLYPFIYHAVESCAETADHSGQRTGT

| IC50 [nM] | SMILES |
| --- | --- |
| ≤ 100 | C[C@@H]1CN=C2N(Cc3cnn(C)c3)C(=O)c3cc(S(=O)(=O)NC4(C)CC4)cc(Cl)c3N21 [Example 124, (R)-9-chloro-1-methyl-4-((1-methyl-1H-pyrazol-4-yl)methyl)-N-(1-methylcyclopropyl)-5-oxo-1,2,4,5-tetrahydroimidazo[1,2-a]quinazoline-7-sulfonamide] |
| 100 to 1000 | COCC1(C)CN2C(=N1)N(Cc1cnn(C)c1)C(=O)c1cc(S(=O)(=O)NC3(C)CC3)ccc12 (stereo not shown) [Example 127, 2-(methoxymethyl)-2-methyl-4-((1-methyl-1H-pyrazol-4-yl)methyl)-N-(1-methylcyclopropyl)-5-oxo-1,2,4,5-tetrahydroimidazo[1,2-a]quinazoline-7-sulfonamide] |
| ≤ 100 | [2H]C([2H])(c1cnn(C)c1)N1C(=O)c2cc(S(=O)(=O)NC3(C)CC3)cc(Cl)c2N2C1=NC[C@H]2C [Example 128, (R)-9-chloro-4-(dideutero(1-methyl-1H-pyrazol-4-yl)methyl)-1-methyl-N-(1-methylcyclopropyl)-5-oxo-1,2,4,5-tetrahydroimidazo[1,2-a]quinazoline-7-sulfonamide] |
| ≤ 100 | C[C@@H]1CN=C2N(Cc3cnn(C)c3)C(=O)c3cc(S(=O)(=O)NC4(C)CC4)cc(Br)c3N21 [Example 129, (R)-9-bromo-1-methyl-4-((1-methyl-1H-pyrazol-4-yl)methyl)-N-(1-methylcyclopropyl)-5-oxo-1,2,4,5-tetrahydroimidazo[1,2-a]quinazoline-7-sulfonamide] |
| ≤ 100 | C[C@@H]1CN=C2N(Cc3cnn(C)c3)C(=O)c3cc(S(=O)(=O)NC4(C)CC4)cc(N4CCN(C(=O)N(C)C)CC4)c3N21 [Example 130, (R)—N,N-dimethyl-4-(1-methyl-4-((1-methyl-1H-pyrazol-4-yl)methyl)-7-(N-(1-methylcyclopropyl)sulfamoyl)-5-oxo-1,2,4,5-tetrahydroimidazo[1,2-a]quinazolin-9-yl)piperazine-1-carboxamide] |
| ≤ 100 | C[C@@H]1CN=C2N(Cc3cnn(C)c3)C(=O)c3cc(S(=O)(=O)NC4(C)CC4)cc(C4=CCN(C)CC4)c3N21 [Example 131, (R)-1-methyl-9-(1-methyl-1,2,3,6-tetrahydropyridin-4-yl)-4-((1-methyl-1H-pyrazol-4-yl)methyl)-N-(1-methylcyclopropyl)-5-oxo-1,2,4,5-tetrahydroimidazo[1,2-a]quinazoline-7-sulfonamide] |
| ≤ 100 | [2H]C([2H])(c1cnn(C)c1)N1C(=O)c2cc(S(=O)(=O)NC3(C)CC3)cc(C)c2N2C1=NC[C@H]2C [Example 132, (R)-1,9-dimethyl-4-((1-methyl-1H-pyrazol-4-yl)methyl-d2)-N-(1-methylcyclopropyl)-5-oxo-1,2,4,5-tetrahydroimidazo[1,2-a]quinazoline-7-sulfonamide] |
| ≤ 100 | C[C@@H]1CN=C2N(Cc3cnn(C)c3)C(=O)c3cc(S(=O)(=O)NC4(C)CC4)cc(C4=CCOCC4)c3N21 [Example 133, (R)-9-(3,6-dihydro-2H-pyran-4-yl)-1-methyl-4-((1-methyl-1H-pyrazol-4-yl)methyl)-N-(1-methylcyclopropyl)-5-oxo-1,2,4,5-tetrahydroimidazo[1,2-a]quinazoline-7-sulfonamide] |
| ≤ 100 | [2H]C([2H])(c1cnn(C)c1)N1C(=O)c2cc(S(=O)(=O)NC3(C)CC3)cc(C(F)(F)F)c2N2C1=NC[C@H]2C [Example 134, (R)-1-methyl-4-((1-methyl-1H-pyrazol-4-yl)methyl-d2)-N-(1-methylcyclopropyl)-5-oxo-9-(trifluoromethyl)-1,2,4,5-tetrahydroimidazo[1,2-a]quinazoline-7-sulfonamide] |
| ≤ 100 | C[C@@H]1CN=C2N(Cc3cnn(C)c3)C(=O)c3cc(S(=O)(=O)NC4(C)CC4)cc(-c4ccc(F)nc4)c3N21 [Example 135, (R)-9-(6-fluoropyridin-3-yl)-1-methyl-4-((1-methyl-1H-pyrazol-4-yl)methyl)-N-(1-methylcyclopropyl)-5-oxo-1,2,4,5-tetrahydroimidazo[1,2-a]quinazoline-7-sulfonamide] |
| ≤ 100 | C[C@@H]1CN=C2N(Cc3cnn(C)c3)C(=O)c3cc(S(=O)(=O)NC4(C)CC4)cc(-c4ccc(F)cc4)c3N21 [Example 136, (R)-9-(4-fluorophenyl)-1-methyl-4-((1-methyl-1H-pyrazol-4-yl)methyl)-N-(1-methylcyclopropyl)-5-oxo-1,2,4,5-tetrahydroimidazo[1,2-a]quinazoline-7-sulfonamide] |
| ≤ 100 | [2H]C([2H])(c1cnn(C)c1)N1C(=O)c2cc(S(=O)(=O)NC3(C)CC3)cc(Br)c2N2C1=NC[C@H]2C [Example 137, (R)-9-bromo-1-methyl-4-((1-methyl-1H-pyrazol-4-yl)methyl-d2)-N-(1-methylcyclopropyl)-5-oxo-1,2,4,5-tetrahydroimidazo[1,2-a]quinazoline-7-sulfonamide] |
| 100 to 1000 | C[C@@H]1CN=C2N(Cc3cnn(C)c3)C(=O)c3cc(S(=O)(=O)NC4(C)CC4)cc(C#N)c3N21 [Example 138, (R)-9-cyano-1-methyl-4-((1-methyl-1H-pyrazol-4-yl)methyl)-N-(1-methylcyclopropyl)-5-oxo-1,2,4,5-tetrahydroimidazo[1,2-a]quinazoline-7-sulfonamide] |
